Patent publication US11813230B2, “Composition for strengthening skin barrier, moisturizing skin or anti-aging” (COSMAX, INC., priority 2020, dated 2023)

Legend:
Settings in all cases: 37° C., 48 up to 72 hours, well color change
S. pneumoniae (CX-2) = assay type: cell-based, Streptococcus pneumoniae
Protocol: (§1) To analyze substance utilization by the isolated strains (Streptococcus pneumoniae, Streptococcus infantis, and Streptococcus mitis), tests were conducted in the following manner. BioLOG GP2 and API 50 were used in determining the substance utilization, and testing was performed using testing methods provided by Omnilog and Biomeriuse. The culturing temperature and media suitable to corresponding strains were selected, and 5 among cluster colonies incubated for 48 hours were taken and suspended in reagents before use. The inoculation amount was 150 μl. As the suspension, components of kits provided by various manufacturers were used. When the strains are yet to be inoculated, the suspension is in a transparent liquid phase. Inoculated plates and strips were incubated at 37° C. for 48 hours, and then the incubation of up to 72 hours was examined. Wells were in a transparent liquid phase at the time of inoculating, but the colors of the wells changed to purple or red, and the color-changed wells were determined to be positive.

S. infantis (CX-4) = assay: Substance utilization (BioLOG GP2 / API 50); assay type: cell-based, Streptococcus infantis
Protocol: as §1

S. mitis (CX-8) = assay: Substance utilization (BioLOG GP2 / API 50); assay type: cell-based, Streptococcus mitis
Protocol: as §1

Row | Molecule | substance utilization by S. pneumoniae (CX-2) (S. pneumoniae (CX-2)) | substance utilization by S. infantis (CX-4) (S. infantis (CX-4)) | substance utilization by S. mitis (CX-8) (S. mitis (CX-8))
1 | Tween 40 | + | + | 
2 | COc1cc(-c2ccc(-n3nc(-c4ccccc4)n[n+]3-c3ccccc3)c(OC)c2)ccc1-n1nc(-c2ccccc2)n[n+]1-c1ccccc1.[Cl-].[Cl-] [Tetrazolium Blue] |  | + | +
3 | D-Turanose | + |  | 
4 | CO[C@H]1/C=C/O[C@@]2(C)Oc3c(C)c([O-])c4c(O)c(cc(O)c4c3C2=O)NC(=O)/C(C)=C\C=C\[C@H](C)[C@H](O)[C@@H](C)[C@@H](O)[C@@H](C)[C@H](OC(C)=O)[C@@H]1C.[Na+] [Rifamycin SV] |  | + | +
5 | O=P(O)(O)OC[C@H]1OC(O)(CO)[C@@H](O)[C@@H]1O (stereo partly drawn) [D-Fructose-6-Po4] |  |  | +
6 | OC[C@H]1O[C@H](OCC2O[C@@H](O)[C@H](O)[C@@H](O)[C@@H]2O)[C@H](O)[C@@H](O)[C@H]1O (stereo partly drawn) [D-Melibiose] | + |  | 
7 | O=[Te]([O-])[O-].[K+].[K+] [Potassium Tellurite] | + | + | +
8 | OC[C@H]1O[C@@H](O[C@H]2[C@H](O)[C@@H](O)[C@H](O)O[C@@H]2CO)[C@H](O)[C@@H](O)[C@@H]1O [D-Cellobiose] | + | + | +
9 | CC(O)C(=O)[O-].[Na+] (stereo not shown) [1% Sodium Lactate, Sodium Lactate] | + | + | +
10 | Dextrin | + | + | +
11 | OC[C@H]1O[C@H](OC[C@H]2O[C@H](OC[C@H]3O[C@H](O[C@]4(CO)O[C@H](CO)[C@@H](O)[C@@H]4O)[C@H](O)[C@@H](O)[C@@H]3O)[C@H](O)[C@@H](O)[C@H]2O)[C@H](O)[C@@H](O)[C@H]1O [Stachyose] | + | + | +
12 | [Cl-].[Li+] [Lithium Chloride] |  |  | +
13 | O=C1O[C@H]([C@@H](O)CO)[C@@H](O)[C@@H]1O [L-Galactonic Acid Lactone] |  |  | +
14 | D-Salicin |  |  | +
15 | OC[C@H]1O[C@H](O[C@H]2[C@H](O)[C@@H](O)[C@H](O)O[C@@H]2CO)[C@H](O)[C@@H](O)[C@@H]1O [D-maltose] | + | + | +
16 | [Cl-].[Na+] [1% NaCl, NaCl] | + | + | +
17 | Pectin | + | + | +
18 | OC[C@H]1O[C@H](OC[C@H]2O[C@H](O[C@]3(CO)O[C@H](CO)[C@@H](O)[C@@H]3O)[C@H](O)[C@@H](O)[C@@H]2O)[C@H](O)[C@@H](O)[C@H]1O [D-Raffinose] | + |  | 
